Data taken from US10889569B2, “Condensed ring group azacyclobutyl triazole derivative, preparation method therefor and use thereof in medicine” (Jiangsu Hengrui Medicine Co., Ltd., priority 2016, dated 2021).

Experiments:
human V2R = human V2R (Homo sapiens (Human), UniProt P30518); assay: Inhibition activity on human V2R (cAMP HTRF assay, HEK293/human V2R pool cells); format: cell-based; conditions: vasopressin
Protocol: The inhibition effect of the compounds of the present invention on the activity of human V2R protein expressed in HEK293/human V2R cells was determined by the following experimental method:
The pcDNA3.1-V2R plasmid was transferred into HEK293 cells with the Lipofectamine® 3000 transfection reagent; G418 was added on the next day, and the HEK293/human V2R pool cell lines were obtained.
HEK293/human V2R pool cells were dissociated with the cell dissociation solution (enzyme-free), thereby dissociating the cells from the cell culture dish into individual cells. Then the cell solution was blown well, and centrifuged to remove the supernatant. The cells were resuspended in the test buffer 1 (1×HBSS+20 mM HEPES+0.1% BSA) and counted. The cell density was adjusted to 1250 cells/5 μl, i.e., 2.5*10^5/ml.
The compounds were formulated into a series of concentrations of 20 mM, 6.67 mM, 2.22 mM, 0.74 mM, 0.25 mM, 0.08 mM, 27.4 μM, 9.14 μM, 3.05 μM, 1.02 μM, 0.34 μM and 0 μM (DMSO) with pure DMSO. The compounds were then diluted into a 4-fold working concentration solution with the test buffer 2 (test buffer 1+1 mM IBMX).
Agonist: 460 μM vasopressin was used as the mother liquor, which was formulated at 2 μM with DMSO, and then diluted to 0.5 nM with the test buffer 2.
Standards: The first point was 20 μl of a stock solution (2848 nM), which was diluted successively to a total of eleven concentrations in a 4-fold concentration gradient with the test buffer 1 from the second point.
1. The well-mixed cells were added to a 384-well plate (5 μl/well) without changing the tip.
2. The test compounds and positive compound formulated were added (2.5 μl/well), and the tips were changed.
3. The plate was centrifuged at 1000 rpm for 1 min, shaken for 30 sec to mix well, and incubated at room temperature for 30 min.
4. The standard curve wells were added with the test buffer 2 (5 μl/well).
5. The formulated agonist was added (2.5 μl/well), and the tips were changed; the plate was centrifuged at 1000 rpm for 1 min, shaken for 30 sec to mix well, and incubated at room temperature for 30 min.
6. cAMP-d2 (a component in the cAMP dynamic 2 kit) and Anti-cAMP-Eu-Cryptate (a component in the cAMP dynamic 2 kit) were formulated in the dark, which were then mixed well with cAMP lysate (a component in the cAMP dynamic 2 kit) in a ratio of 1:4. Each well was added with the formulated cAMP-d2 solution (5 μl/well), followed by addition of Anti-cAMP-Eu-Cryptate (5 μl/well). The plate was shaken for 30 sec to mix well, and incubated in the dark at room temperature for 1 h.
The HTRF Signals were Read by the PheraStar Multi-Function Microplate Reader.
The data in this test was processed using the data processing software Graphpad Prism.
The inhibition activity of the compounds of the present invention on human V2R was determined by the above test, and the IC50 values obtained are shown in Table 4.

human V1aR = human V1aR (Homo sapiens (Human), UniProt P37288); assay: Inhibition activity on human V1aR (Fluo-4 calcium assay, HEK293/human V1aR stably transfected cells); format: cell-based; conditions: vasopressin 3 nM
Protocol: The inhibition effect of the compounds of the present invention on the activity of human V1 aR protein expressed in HEK293/human V1aR stably transfected cells was determined by the following experimental method:
The pcDNA3.1-V1aR plasmid was transferred into HEK293 cells with the Lipofectamine® 3000 transfection reagent; G418 was added on the next day to screen, and monoclonal cell lines were selected.
(§1) HEK293/human V1aR stably transfected cells were inoculated in a 96-well plate with an inoculation density of 25,000 cells/well one day in advance. On the next day, a loading buffer containing Fluo-4 dye was formulated using the reagents in the Fluo-4 NW calcium assay kit, and the culture medium was then removed; 100 μl of the loading buffer containing Fluo-4 dye were added to each well, and the plate was incubated at 37° C. for 30 minutes. After that, the plate was moved to room temperature and equilibrated for 10 minutes. The compounds were formulated at 10^6, 10^5, 10^4, 10^3, 10^2 and 10^1 nM. 1 μl of the compounds in each concentration was added to each well, and the plate was incubated at room temperature for 10 minutes. 50 μl of vasopressin polypeptide (3 nM) were automatically added by the machine, and the values were immediately detected at 494/516 nM by the flexstation 3 microplate reader. IC50 values of the compounds were calculated by Graphpad prism software using fluorescence signals corresponding to different concentrations.
The inhibition activity of the compounds of the present invention on human V1aR was determined by the above test, and the obtained IC50 values are shown in Table 2.

human OTR = human OTR (Homo sapiens, UniProt P30559); assay: Inhibition activity on human OTR (Fluo-4 calcium assay, HEK293/human OTR stably transfected cells); format: cell-based; conditions: oxytocin 3 nM
Protocol: The inhibition effect of the compounds of the present invention on the activity of human OTR protein expressed in HEK293/human OTR stably transfected cells was determined by the following experimental method:
The pcDNA3.1-hOTR plasmid was transferred into HEK293 cells with the Lipofectamine® 3000 transfection reagent; G418 was added on the next day to screen, and monoclonal cell lines were selected.
as §1, with “OTR” for “V1aR”, “oxytocin” for “vasopressin”
The inhibition activity of the compounds of the present invention on human OTR was determined by the above test, and the obtained IC50 values are shown in Table 1.

human V1bR = human V1bR (Homo sapiens, UniProt P47901); assay: Inhibition activity on human V1bR (Fluo-4 calcium assay, HEK293/human V1bR pool cells); format: cell-based; conditions: vasopressin 3 nM
Protocol: The inhibition effect of the compounds of the present invention on the activity of human V1bR protein expressed in HEK293/human V1bR cells was determined by the following experimental method:
The pcDNA3.1-V1bR plasmid was transferred into HEK293 cells with the Lipofectamine® 3000 transfection reagent; G418 was added on the next day, and the HEK293/human V1bR pool cell lines were obtained.
as §1, with “HEK293/human V1bR pool” for “HEK293/human V1aR stably transfected”, “formulated into” for “formulated at”
The inhibition activity of the compounds of the present invention on human V1bR was determined by the above test, and the obtained IC50 values are shown in Table 3.

[1] = Pharmacokinetics assay in rats after intragastrical administration; format: in vivo, SD rats; conditions: Sprague-Dawley, rat, plasma, po, 30 mg/kg, intragastric, male rats
Protocol: Male SD rats were used as test animals. The drug concentration in plasma at different time points was determined by LC/MS/MS method after intragastrical administration of the compounds of Examples 2, 17, 34, 37, 38, 39 and 43 to rats. The pharmacokinetic behavior of the compounds of the present invention was studied and evaluated in rats.
Twenty-one healthy adult male Sprague-Dawley (SD) rats were purchased from Shanghai Jiesijie Laboratory Animal Co., LTD, with Certificate No.: SCXK (Shanghai) 2013-0006, and equally divided into 7 groups (3 rats per group).
A certain amount of the test compound was weighed, and added with 2.5% by volume of DMSO and 97.5% by volume of 10% solutol HS-15 to formulate a […] colorless, clear and transparent solution.
After an overnight fast, SD rats were administered intragastrically the test compounds at an administration dosage of 30.0 mg/kg and an administration volume of 10.0 mL/kg.
The rats were intragastrically administered the compounds of Examples 2, 17, 34, 37, 38, 39 and 43. 0.2 mL of blood was taken from the orbital sinus before administration and at 0.5, 1.0, 2.0, 4.0, 6.0, 8.0, 11.0 and 24.0 hours after administration. The samples were stored in heparinized tubes, and centrifuged for 10 minutes at 4° C. at 3500 rpm to separate the plasma. The plasma samples were stored at −20° C. The rats were fed 2 hours after administration.
The content of the test compounds in the plasma of rats after intragastrical administration of the test compounds at different concentrations was determined: 50 μL of rat plasma at each time after administration was taken, added with 50 μL of the internal standard solution of camptothecin (100 ng/mL) and 150 μL of acetonitrile, vortex-mixed for 5 minutes, and centrifuged for 10 minutes (4000 rpm). 3 μL of the supernatant was taken from the plasma samples for LC/MS/MS analysis.

Sequence of human V1aR (P37288 whole entry): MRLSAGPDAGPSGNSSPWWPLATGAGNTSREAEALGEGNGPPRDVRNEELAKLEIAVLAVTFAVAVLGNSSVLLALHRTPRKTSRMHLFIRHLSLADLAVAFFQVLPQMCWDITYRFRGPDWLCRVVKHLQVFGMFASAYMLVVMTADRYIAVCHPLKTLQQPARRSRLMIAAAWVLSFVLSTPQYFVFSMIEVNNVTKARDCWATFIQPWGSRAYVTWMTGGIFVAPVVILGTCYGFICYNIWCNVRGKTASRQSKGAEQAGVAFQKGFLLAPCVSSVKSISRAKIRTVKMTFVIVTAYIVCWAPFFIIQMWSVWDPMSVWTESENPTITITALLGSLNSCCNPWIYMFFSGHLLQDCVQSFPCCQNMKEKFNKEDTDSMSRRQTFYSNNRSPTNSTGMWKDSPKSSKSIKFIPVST
Sequence of human V2R (P30518 whole entry): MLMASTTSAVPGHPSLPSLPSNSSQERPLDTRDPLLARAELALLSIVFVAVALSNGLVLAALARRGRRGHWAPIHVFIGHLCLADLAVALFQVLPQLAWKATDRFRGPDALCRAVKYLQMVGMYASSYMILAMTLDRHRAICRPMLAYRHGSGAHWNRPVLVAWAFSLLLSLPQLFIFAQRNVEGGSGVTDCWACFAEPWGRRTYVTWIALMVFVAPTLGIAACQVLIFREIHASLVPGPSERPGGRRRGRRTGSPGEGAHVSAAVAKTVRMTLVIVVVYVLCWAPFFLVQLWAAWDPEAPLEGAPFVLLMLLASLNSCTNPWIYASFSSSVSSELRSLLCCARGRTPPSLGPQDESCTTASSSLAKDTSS

| IC50 (human V2R) | IC50 (human V1aR) | IC50 (human OTR) | IC50 (human V1bR) | SMILES | further results |
| --- | --- | --- | --- | --- | --- |
| 67.2 µM | 10.7 µM | 0.1 µM | 44.1 µM | COCc1nnc(N2CC(N3CCOc4cc(F)ccc43)C2)n1-c1ccc(OC)nc1 [Example 24, 7-Fluoro-4-(1-(5-(methoxymethyl)-4-(6-methoxypyridin-3-yl)-4H-1,2,4-triazol-3-yl)azetidin-3-yl)-3,4-dihydro-2H-benzo[b][1,4]oxazine] | – |
| – | 1.7 µM | 0.004 µM | – | COc1ccc(-n2c(COC(F)F)nnc2N2CC(N3CCOc4cc(F)ccc43)C2)cn1 [Example 37, 4-(1-(5-((Difluoromethoxy)methyl)-4-(6-methoxypyridin-3-yl)-4H-1,2,4-triazol-3-yl)azetidin-3-yl)-7-fluoro-3,4-dihydro-2H-benzo[b][1,4]oxazine] | Vd/F ([1]; read-out: Apparent distribution volume Vz/F): 56.3 ± 66 L/kg; AUC ([1]; read-out: Area under curve AUC): 8180 ± 9850 ng·h/mL; CL/F ([1]; read-out: Clearance CLz/F): 201 ± 223 mL/min/kg; half-life ([1]; read-out: Half-life T1/2 (converted)): 2.95 ± 0.42 h; Cmax ([1]; read-out: Plasma concentration Cmax): 1120 ± 950 ng/mL; MRT ([1]; read-out: Residence time MRT): 4.9 ± 1.36 h |
| > 100 µM | 23 µM | – | 77.2 µM | COc1ccc(-n2c(C)nnc2N2CC(N3CCOc4cc(F)ccc43)C2)cn1 [Example 32, 7-Fluoro-4-(1-(4-(6-methoxypyridin-3-yl)-5-methyl-4H-1,2,4-triazol-3-yl)azetidin-3-yl)-3,4-dihydro-2H-benzo[b][1,4]oxazine] | – |
| 1.4 µM | – | 0.007 µM | 61 µM | CCOCc1nnc(N2CC(N3CCCc4cc(F)ccc43)C2)n1-c1ccc(OC)nc1 [Example 26, 1-(1-(5-(Ethoxymethyl)-4-(6-methoxypyridin-3-yl)-4H-1,2,4-triazol-3-yl)azetidin-3-yl)-6-fluoro-1,2,3,4-tetrahydroquinoline] | – |
| 9.1 µM | – | 0.008 µM | 13.9 µM | CCOCc1nnc(N2CC(N3CCCc4cc(F)ccc43)C2)n1-c1ccc2c(c1)OCO2 [Example 27, 1-(1-(4-(Benzo[d][1,3]dioxolan-5-yl)-5-(ethoxymethyl)-4H-1,2,4-triazol-3-yl)azetidin-3-yl)-6-fluoro-1,2,3,4-tetrahydroquinoline] | – |

Second part, the compound before the results:

| SMILES | IC50 (human V2R) | IC50 (human V1aR) | IC50 (human OTR) | IC50 (human V1bR) | further results |
| --- | --- | --- | --- | --- | --- |
| COCc1nnc(N2CC(c3ccnc4cc(F)ccc34)C2)n1-c1ccc(OC)nc1 [Example 1, 7-Fluoro-4-(1-(5-(methoxymethyl)-4-(6-methoxypyridin-3-yl)-4H-1,2,4-triazol-3-yl)azetidin-3-yl)quinoline] | > 100 µM | 18.1 µM | – | 448 µM | – |
| COCc1nnc(N2CC(N3C(=O)COc4cc(F)ccc43)C2)n1-c1ccc(OC)nc1 [Example 18, 7-Fluoro-4-(1-(5-(methoxymethyl)-4-(6-methoxypyridin-3-yl)-4H-1,2,4-triazol-3-yl)azetidin-3-yl)-2H-benzo[b][1,4]oxazin-3(4H)-one] | 59.4 µM | 59.5 µM | – | 59.5 µM | – |
| COCc1nnc(N2CC(N3CCc4cc(F)ccc43)C2)n1-c1ccc(OC)nc1 [Example 23, 5-Fluoro-1-(1-(5-(methoxymethyl)-4-(6-methoxypyridin-3-yl)-4H-1,2,4-triazol-3-yl)azetidin-3-yl)indoline] | 52 µM | – | – | – | – |
| COCc1nnc(N2CC(c3coc4cc(F)ccc34)C2)n1-c1ccc(OC)nc1 [Example 11, 5-(3-(3-(6-Fluorobenzofuran-3-yl)azetidin-1-yl)-5-(methoxymethyl)-4H-1,2,4-triazol-4-yl)-2-methoxypyridine] | 25.7 µM | 2.3 µM | 0.221 µM | – | – |
